Measured values reported in PubChem BioAssay (NCI).
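Grown in 96-well plates, cells were treated for 48 hours with each compound at five concentrations. Insufficient inhibition: endpoint recorded as highest concentration tested. GI50 = concentration required for 50% inhibition of growth. TGI is the concentration that stops growth completely.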

Key:
Assay in all cases: NCI tumour cell line growth inhibition, 48 h
[1] = test system: SK-MEL-5 melanoma
[2] = test system: SF-295 CNS
[3] = test system: NCI-H522 lung
[4] = test system: A549 NSCLC
[5] = test system: EKVX NSCLC
[6] = test system: SF-539 CNS
[7] = test system: 786-0 renal
[8] = test system: SW-620 colon
[9] = test system: NCI-H226 lung
[10] = test system: HL-60(TB) leukemia
[11] = test system: MCF7 breast
[12] = test system: HOP-62 NSCLC
[13] = test system: SK-MEL-28 melanoma
[14] = test system: OVCAR-4 ovarian
[15] = test system: NCI-H460 lung
[16] = test system: T-47D breast
[17] = test system: OVCAR-8 ovarian
[18] = test system: DU-145 prostate
[19] = test system: SK-MEL-2 melanoma
[20] = test system: PC-3 prostate
[21] = test system: TK-10 renal
[22] = test system: OVCAR-3 ovarian
[23] = test system: KM12 colon
[24] = test system: UACC-257 melanoma
[25] = test system: MALME-3M melanoma
[26] = test system: MDA-MB-435
[27] = test system: MOLT-4 leukemia
[28] = test system: SNB-75 CNS
[29] = test system: A498 renal
[30] = test system: SN12C renal
[31] = test system: HOP-92 NSCLC
[32] = test system: LOX IMVI melanoma
[33] = test system: COLO 205 colon
[34] = test system: M14 melanoma
[35] = test system: CAKI-1 renal
[36] = test system: SF-268 CNS
[37] = test system: NCI/ADR-RES ovarian
[38] = test system: MDA-MB-231 breast
[39] = test system: RXF 393 renal
[40] = test system: HCC-2998 colon
[41] = test system: SK-OV-3 ovarian
[42] = test system: HS 578T breast
[43] = test system: UO-31 renal
[44] = test system: BT-549 breast
[45] = test system: OVCAR-5 ovarian
[46] = test system: U251 CNS
[47] = test system: IGROV1 ovarian
[48] = test system: SNB-19 CNS
[49] = test system: SR leukemia
[50] = test system: HCT-116 colon
[51] = test system: HT29 colon
[52] = test system: HCT-15 colon
[53] = test system: UACC-62 melanoma
[54] = test system: NCI-H23 lung
[55] = test system: ACHN renal

C/C=C(/C(=C/C)c1ccc(O)cc1)c1ccc(O)cc1
GI50 [1]: 3.56 µM | TGI [1]: 15.2 µM | GI50 [2]: 2480 nM | TGI [2]: 8.11 µM | GI50 [3]: 3.63 µM | TGI [3]: 16.9 µM | GI50 [4]: 4.04 µM | TGI [4]: 19 µM | GI50 [5]: 7.38 µM | TGI [5]: 26.7 µM | GI50 [6]: 3.27 µM | TGI [6]: 13.8 µM | GI50 [7]: 5.54 µM | TGI [7]: 27 µM | GI50 [8]: 3.85 µM | TGI [8]: 14.9 µM | GI50 [9]: 9.36 µM | TGI [9]: 47 µM | GI50 [10]: 3.9 µM | TGI [10]: 25.1 µM | GI50 [11]: 7.19 µM | TGI [11]: 26.1 µM | GI50 [12]: 3.62 µM | TGI [12]: 16 µM | GI50 [13]: 5.71 µM | TGI [13]: 21.1 µM | GI50 [14]: 8.18 µM | TGI [14]: 33.6 µM | GI50 [15]: 3.44 µM | TGI [15]: 13.2 µM | GI50 [16]: 5.11 µM | TGI [16]: 21.9 µM | GI50 [17]: 4.65 µM | TGI [17]: 25.4 µM | GI50 [18]: 3.35 µM | TGI [18]: 10.4 µM | GI50 [19]: 8.4 µM | TGI [19]: 30.7 µM | GI50 [20]: 4.51 µM | TGI [20]: 17.4 µM | GI50 [21]: 12.8 µM | TGI [21]: 29.4 µM | GI50 [22]: 2370 nM | TGI [22]: 5.38 µM | GI50 [23]: 3.73 µM | TGI [23]: 13.6 µM | GI50 [24]: 9.4 µM | TGI [24]: 24.8 µM | GI50 [25]: 7.07 µM | TGI [25]: 31 µM | GI50 [26]: 1190 nM | TGI [26]: 3.56 µM | GI50 [27]: 5.43 µM | TGI [27]: 24.2 µM | GI50 [28]: 1900 nM | TGI [28]: 5.34 µM | GI50 [29]: 6.22 µM | TGI [29]: 19.3 µM | GI50 [30]: 5.22 µM | TGI [30]: 22.9 µM | GI50 [31]: 3.98 µM | TGI [31]: 22.7 µM | GI50 [32]: 5.51 µM | TGI [32]: 24.3 µM | GI50 [33]: 3.25 µM | TGI [33]: 10.5 µM | GI50 [34]: 3.33 µM | TGI [34]: 12.5 µM | GI50 [35]: 3.42 µM | TGI [35]: 16.9 µM | GI50 [36]: 6.32 µM | TGI [36]: 22.8 µM | GI50 [37]: 2810 nM | TGI [37]: 9.28 µM | GI50 [38]: 4.58 µM | TGI [38]: 22.2 µM | GI50 [39]: 4.03 µM | TGI [39]: 17.7 µM | GI50 [40]: 8.64 µM | TGI [40]: 24 µM | GI50 [41]: 2540 nM | TGI [41]: 8.88 µM | GI50 [42]: 4.3 µM | TGI [42]: 30.2 µM | GI50 [43]: 5.34 µM | TGI [43]: 24.9 µM | GI50 [44]: 7.39 µM | TGI [44]: 22.5 µM | GI50 [45]: 8.38 µM | TGI [45]: 23.2 µM | GI50 [46]: 3.49 µM | TGI [46]: 15.9 µM | GI50 [47]: 5.41 µM | TGI [47]: 36.8 µM | GI50 [48]: 4.79 µM | TGI [48]: 21 µM | GI50 [49]: 4.24 µM | TGI [49]: 92.9 µM | GI50 [50]: 4.58 µM | TGI [50]: 16.2 µM | GI50 [51]: 3.71 µM | TGI [51]: 12.6 µM | GI50 [52]: 5.47 µM | TGI [52]: 20.3 µM | GI50 [53]: 4.86 µM | TGI [53]: 18.7 µM | GI50 [54]: 5.3 µM | TGI [54]: 21.9 µM | GI50 [55]: 9.64 µM | TGI [55]: 21.4 µM
